In one data set the test system is lipid-coated viruses. Conditions: against lipid-coated viruses; cited from earlier work.
Data set [1] is described as follows: stability of BHT in the preparation on storage, liquid chromatography. It counts as physicochemical. The protocol:
Finally, the stability of BHT in a preparation according to the invention was tested: • a container with 40 kg of preparation, covered with a simple lid without any special packaging such as the addition of an inert gas (e.g. nitrogen), was placed in storage for three yeas.

For data set [2], the system named is transformed human keratinocytes (cell line TR 146). Description: acute ocular tolerance on reconstituted corneas ([…] model), MTT cell viability test. It counts as cell-based. On the set-up: key to Colour of the two cultures: deep blue/purple colour when they are viable; white/yellow in colour if cell death occurs. How it is done:
To start with, the product was evaluated in terms of its capacity to trigger cytopathic effects on corneas reconstituted by means of in vitro transformed keratinocytes cultures.
When they are cultured at the air-liquid interface in a specific medium, transformed human keratinocytes (cell line TR 146) form epithelial tissue without a corneal layer, similar to the human eye.
A sample of the product to be studied (30 μl) was deposited on each of the six equivalent reconstituted corneal cultures and spread out using a thin brush.
Two cultures were then incubated at 37° C., 5% CO2 for 10 minutes, 1 hour, 3 hours and 24 hours.
Negative controls substances (buffered phosphate saline solution A) and positive controls substances (0.4% SDS for “sodium dodecyl sulfate” in solution A) were prepared under sterile conditions and deposited simultaneously on the other two cultures. These cultures were incubated for one hand 24 hours. […]
Cell viability was measured qualitatively after staining. […]
After incubation for 30 minutes at room temperature, each culture's colour is observed and recorded: • negative control cultures should be a deep blue/purple colour, evidence of the viability of cells in the basal layer after 24 hours in contact, • positive control cultures should be white, evidence of cell death from the first hour of contact.

Turning to `Cc1cc(C(C)(C)C)c(O)c(C(C)(C)C)c1` [BHT, 3,5-di-tert-butyl-4-hydroxytoluene], the antiviral properties result with lipid-coated viruses is listed as “antiviral properties”. Besides, the “BHT concentrations by liquid chromatography” value in data set [1] (40 kg of preparation in a container with simple lid, no inert gas, stored three years) is reported as “remained the same”. In addition, the “stability of BHT in a preparation according to the invention” value in data set [1] (storage for three years) is given as “excellent”.

On to `CC(C)(C)c1cc(C(=O)O)cc(C(C)(C)C)c1O` [BG4, 3,5-di-tert-butyl-4-hydroxybenzoic acid], for which the antiviral properties entry in the data set on lipid-coated viruses was “antiviral properties”.

Consider `CC(C)(C)c1cc(C(=O)OCCOCCOCCOCCOCCOCCOCCOCCO)cc(C(C)(C)C)c1O` [AVF1, octaoxyethyleneglycol 3,5-di-tert-butyl-4-hydroxybenzoate], for which the antiviral properties entry in the data set on lipid-coated viruses is “antiviral properties”.

Turning to `CCCCCCCCCCCCOS(=O)(=O)[O-].[Na+]` [Positive control, sodium dodecyl sulfate], the “Colour of the two cultures” value in data set [2] (1 hour contact, MTT) is on record as “white”. In addition, the Toxicity entry in data set [2] (interpretation of the colours at 10 min, 1, 3 and 24 hours) is “VI (very irritant (VI): white at 10 minutes, 1 hour, 3 hours and 24 hours)”.

(Values after patent US20050175644A1, “Preparation for oxidation-sensitive compounds and method for making same” (priority 2002, published 2005).)
